This is an account of results in US20190151271A1, “COMPOSITIONS AND METHODS FOR TREATMENT OF EYE DISEASES” (The Johns Hopkins University, priority 2017, published 2019).

Data set [1] in a line: Evaluation of retinal penetration of NACA: NACA/NAC levels in plasma, aqueous, vitreous and retina after 20 mg/mL NACA in drinking water for 7 days. Conditions: for mean level in aqueous humor compared with plasma: 20 mg/mL NACA in drinking water (FIG. 2); for measurability in the retina: animals treated with NACA, N=20 eyes per strain (FIG. 4); for mean level in retina compared with plasma: either type of mice (FIG. 4 compared to FIG. 1); for mean retina levels: 20 mg/mL NACA in drinking water P28-P35, estimated dose 60-80 mg/day. In kind it is in vivo, mice (rd10 and wild type C57/BL6). As to the method:
The objective of this study was to determine retinal levels of NACA/NAC after administration of 20 mg/mL NACA in drinking water for 7 days in a mouse model of RP and in wild type mice. This experiment was designed to provide rapid confirmation that NACA and/or NAC penetrate the retina following oral administration and to allow comparison of the tissue levels of NACA and NAC in vitreous and retina to plasma. It also provided a comparison of retinal penetration in mice with RP and wild type mice to determine if the breakdown in the blood-retinal barrier in RP affects the levels of NACA in the retina.
Animals and Treatments. Mice were treated in accordance with the recommendations of the Association for Research in Vision and Ophthalmology. Litters of homozygous rd10/rd10 mice (B6.CXB1-Pde6brd10/J) and wild type C57/BL6 mice (The Jackson Laboratory, Bar Harbor, Me.) were used for these studies.
Starting on post-natal day 28 (P28), animals were given normal drinking water (controls, n=10 for each strain) or water containing 20 mg/ml NACA (n=10 for each strain).
Analysis of NACA and NAC. Upon sacrifice of the mice on P35 (post-natal day 35), retina, aqueous, vitreous and plasma were collected, weighed, and stabilized as quickly as possible and stored at −80° C. prior to shipment to AIT Bioscience, LLC (Indianapolis, Ind.). The qualified bioanalytical method (BAM.0445.01) for the quantitation of total NAC NACA in K2EDTA was based on derivatization, protein precipitation extraction, and LC-MS/MS instrumental analysis. Any disulfides were reduced to free thiols and subsequently reacted with 2-chloro-1-methylpyridinium iodide (CMPI) to form stable thioethers. The thioether derivatives were detected by LC-MS/MS. Stable label isotope internal standards were used. The method covered a concentration range from 50.0 to 50,000 ng/mL.
Evaluation of Retinal Penetration of NACA. To determine retinal levels of NACA/NAC after administration of 20 mg/mL NACA in drinking water for 7 days. This experiment was designed to provide rapid confirmation that NACA penetrates the retina following oral administration and to compare levels of NACA and its major metabolite, NAC. in retina, aqueous humor, vitreous humor and plasma. This experiment was also designed to evaluate if the breakdown in the blood-retinal barrier in RP (simulated by the rd10 mice) affects the levels of NACA in the retina by comparing animals with RP to wild type mice.
Rd10 and C57BL/6 wild type mice began treatment at P28 (post-natal day 28), at P35 mice were euthanized and plasma, vitreous and retina samples were sent to AITBioscences (Indianapolis, Ind.) for determination of NACA and NAC levels by a validated method using high-pressure liquid chromatography with tandem mass spectrometric/mass spectrometric detection (LCMS). Experimental groups: (n=10/group). The research was performed in 4 discrete treatment groups: • 1. Rd10 allowed to freely drink NACA 20 mg/mL-spiked drinking water with measurements at P35; • 2. Rd10 allowed to freely drink untreated water with measurements at P35; • 3. C57/BL6 NACA 20 mg/mL in drinking water measurements at P35; • 4. C57/BL6 allowed to freely drink untreated water with measurements at P35.

The conditions of data set [2]: cited from earlier work; for plasma level: rats, within 30 minutes following oral administration of 500 mg/kg NACA; for detection in the brain: within 30 minutes following oral administration of NACA.
The conditions of data set [3]: oral formulations; cited from earlier work.
Data set [4] relates to cone survival. Conditions: orally administered; cited from earlier work.
Data set [5] relates to rd10 mice. Conditions: 7 mg/mL NACA versus 20 mg/mL NAC in drinking water, P35 and P50; cited from earlier work.
For data set [6], the system named is human retinal pigment epithelial cells. The following applies: cited from earlier work.
The subject of data set [7] is mice exposed to phototoxic doses of light. The following applies: cited from earlier work.

Some results are limits rather than exact numbers.

With `CC(=O)N[C@@H](CS)C(=O)O` [NAC, N-Acetylcysteine, reference compound], in data set [1], the “mean level in aqueous humor compared with plasma” value is recorded as “lower than in plasma”; the “measurability in the retina” value is recorded as “measurable in all animals treated with NACA”; the “mean level in retina compared with plasma” value was “higher, in either type of mice, than those observed in plasma”. Also, in data set [2], the plasma level is 84.55 ± 6.73 µM and the “detection in the brain” value is on record as “detected in the brain”. Further, in data set [3], the “systemic bioavailability for oral administration” value was < 10%. Further, in data set [4], the “cone survival and cone function” value was “promotes prolonged cone survival and maintenance of cone function”.

Take N-acetylcysteine amide [NACA]: in data set [1], the “mean level in aqueous humor compared with plasma” value was “lower than in plasma”; the “measurability in the retina” value was “measurable in all animals treated with NACA”; the “mean level in retina compared with plasma” value was “higher, in either type of mice, than those observed in plasma”. The “ratio of NACA:NAC in the retina, rd10 mice compared with C57/B16 mice” value in data set [1] (20 mg/mL NACA in drinking water (FIG. 5)) was “greater in the retina of rd10 mice than in C57/B16 mice”. Besides, the “mean plasma level, rd10 mice compared with wild type” value in data set [1] (20 mg/ml NACA in drinking water (FIG. 1)) was “greater in rd10 mice than in the wild type”. In data set [1] (N=7 or 8 eyes rd10, N=10 eyes C57/B16 (FIG. 3)), the “level in vitreous humor” value is listed as “A similar pattern was observed”. In addition, the “mean concentration in aqueous humor, rd10 mice compared with wild type” value in data set [1] (N=8 eyes rd10, N=10 C57/B16 (FIG. 2)) is reported as “higher in rd10 mice than wild type”. Besides, the “mean NACA level in plasma compared with NAC level” value in data set [1] (both strains, 20 mg/ml NACA in drinking water, N=10 per strain (FIG. 1)) was “greater than the NAC levels in both strains of mice”. Moreover, in data set [1] (rd10 mice), the mean retina levels result is “approximately 6.5 μg/g”. In addition, the mean retina levels in data set [1] (wild type mice) is ~2.4 µg/g. In addition, in data set [2], the plasma level is 15.07 ± 5.08 µM and the “detection in the brain” value is recorded as “detected in the brain”. For the same compound, in data set [5], the “protection of scotopic and photopic b-waves and cone density” value is reported as “more effective”. Also, in data set [6], the “protection against oxidative stress-induced cellular injury and death” value is “protected against oxidative stress-induced cellular injury and death”. Moreover, the “retinal pigment epithelial cell integrity, outer nuclear layer cell death, photoreceptor function” value in data set [7] was “maintained retinal pigment epithelial cell integrity, prevented outer nuclear layer cell death and rescued photoreceptor function”.
